# From PubChem BioAssay (NCI)
#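 Growth conditions: 96-well plates. Treatment: test compound, 48 hours, 5 concentrations. Analysis: linear interpolation between bracketing concentrations; unreached endpoints set to highest concentration. The concentration for 50% growth inhibition is given as GI50. The concentration for full growth arrest is given as TGI.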
# Columns and labels:
# Assay in all cases: NCI tumour cell line growth inhibition, 48 h
# [1] = test system: 786-0 renal
# [2] = test system: A498 renal
# [3] = test system: A549 NSCLC
# [4] = test system: ACHN renal
# [5] = test system: BT-549 breast
# [6] = test system: CAKI-1 renal
# [7] = test system: CCRF-CEM leukemia
# [8] = test system: COLO 205 colon
# [9] = test system: DU-145 prostate
# [10] = test system: EKVX NSCLC
# [11] = test system: HCC-2998 colon
# [12] = test system: HCT-116 colon
# [13] = test system: HCT-15 colon
# [14] = test system: HL-60(TB) leukemia
# [15] = test system: HOP-62 NSCLC
# [16] = test system: HOP-92 NSCLC
# [17] = test system: HS 578T breast
# [18] = test system: HT29 colon
# [19] = test system: IGROV1 ovarian
# [20] = test system: K-562 leukemia
# [21] = test system: KM12 colon
# [22] = test system: LOX IMVI melanoma
# [23] = test system: M14 melanoma
# [24] = test system: MALME-3M melanoma
# [25] = test system: MCF7 breast
# [26] = test system: MDA-MB-231 breast
# [27] = test system: MDA-MB-435
# [28] = test system: MDA-N
# [29] = test system: MOLT-4 leukemia
# [30] = test system: NCI-H226 lung
# [31] = test system: NCI-H23 lung
# [32] = test system: NCI-H460 lung
# [33] = test system: NCI-H522 lung
# [34] = test system: NCI/ADR-RES ovarian
# [35] = test system: OVCAR-3 ovarian
# [36] = test system: OVCAR-4 ovarian
# [37] = test system: OVCAR-5 ovarian
# [38] = test system: OVCAR-8 ovarian
# [39] = test system: PC-3 prostate
# [40] = test system: RPMI-8226 leukemia
# [41] = test system: RXF 393 renal
# [42] = test system: SF-268 CNS
# [43] = test system: SF-295 CNS
# [44] = test system: SF-539 CNS
# [45] = test system: SK-MEL-2 melanoma
# [46] = test system: SK-MEL-28 melanoma
# [47] = test system: SK-MEL-5 melanoma
# [48] = test system: SK-OV-3 ovarian
# [49] = test system: SN12C renal
# [50] = test system: SNB-19 CNS
# [51] = test system: SNB-75 CNS
# [52] = test system: SW-620 colon
# [53] = test system: TK-10 renal
# [54] = test system: U251 CNS
# [55] = test system: UACC-257 melanoma
# [56] = test system: UACC-62 melanoma
# [57] = test system: UO-31 renal
# [58] = test system: SR leukemia
smiles,measurement,setting,value
CC(=O)Nc1ccc2c3c(cc(O)c2c1)N(C(=O)CCCCC(=O)Nc1ccc2c4c(cc(O)c2c1)N(C(=O)OC(C)(C)C)CC4CCl)CC3CCl (centres undefined),TGI,[1],9.36 µM
same,TGI,[2],4.57 µM
same,TGI,[3],> 55.6 µM
same,TGI,[4],16.1 µM
same,TGI,[5],> 27.1 µM
same,TGI,[6],71.5 µM
same,TGI,[7],4.53 µM
same,TGI,[8],4.17 µM
same,TGI,[9],4.39 µM
same,TGI,[10],35.2 µM
same,TGI,[11],3.79 µM
same,TGI,[12],> 33.2 µM
same,TGI,[13],48.2 µM
same,TGI,[14],12.4 µM
same,TGI,[15],> 33.2 µM
same,TGI,[16],32.8 µM
same,TGI,[17],> 26.6 µM
same,TGI,[18],> 37.9 µM
same,TGI,[19],> 32.8 µM
same,TGI,[20],> 100 µM
same,TGI,[21],> 100 µM
same,TGI,[22],> 34.6 µM
same,TGI,[23],> 34.1 µM
same,TGI,[24],3.52 µM
same,TGI,[25],5.16 µM
same,TGI,[26],26.8 µM
same,TGI,[27],2.95 µM
same,TGI,[28],3.85 µM
same,TGI,[29],> 34.4 µM
same,TGI,[30],5.55 µM
same,TGI,[31],7.09 µM
same,TGI,[32],> 33.8 µM
same,TGI,[33],4.1 µM
same,TGI,[34],> 79.7 µM
same,TGI,[35],5.41 µM
same,TGI,[36],> 24.3 µM
same,TGI,[37],10.6 µM
same,TGI,[38],> 38.7 µM
same,TGI,[39],> 44.8 µM
same,TGI,[40],> 25.8 µM
same,TGI,[41],3.26 µM
same,TGI,[42],7.21 µM
same,TGI,[43],> 56.8 µM
same,TGI,[44],7.62 µM
same,TGI,[45],3.49 µM
same,TGI,[46],23.2 µM
same,TGI,[47],3.18 µM
same,TGI,[48],> 85.3 µM
same,TGI,[49],21.8 µM
same,TGI,[50],> 29.5 µM
same,TGI,[51],4.59 µM
same,TGI,[52],> 100 µM
same,TGI,[53],> 65.5 µM
same,TGI,[54],10 µM
same,TGI,[55],5.16 µM
same,TGI,[56],3.16 µM
same,TGI,[57],> 63.9 µM
NC(C(=O)[O-])C(=O)[O-].NC1CCCCC1N.[Pt+4],GI50,[1],5.79 µM
same,TGI,[1],> 100 µM
same,GI50,[2],11.6 µM
same,TGI,[2],> 100 µM
same,GI50,[3],2.63 µM
same,TGI,[3],> 100 µM
same,GI50,[4],11.2 µM
same,TGI,[4],> 100 µM
same,GI50,[5],> 100 µM
same,TGI,[5],> 100 µM
same,GI50,[6],1.07 µM
same,TGI,[6],3.99 µM
same,GI50,[8],2.84 µM
same,TGI,[8],> 100 µM
same,GI50,[12],2.49 µM
same,TGI,[12],26.6 µM
same,GI50,[13],4.41 µM
same,TGI,[13],> 100 µM
same,GI50,[14],5.28 µM
same,TGI,[14],> 100 µM
same,GI50,[15],8.45 µM
same,TGI,[15],> 100 µM
same,GI50,[17],> 100 µM
same,TGI,[17],> 100 µM
same,GI50,[18],2.65 µM
same,TGI,[18],> 100 µM
same,GI50,[19],16.3 µM
same,TGI,[19],> 100 µM
same,GI50,[20],5.8 µM
same,TGI,[20],> 100 µM
same,GI50,[21],12.5 µM
same,TGI,[21],> 100 µM
same,GI50,[22],2.85 µM
same,TGI,[22],> 100 µM
same,GI50,[23],20.2 µM
same,TGI,[23],> 100 µM
same,GI50,[24],0.294 µM
same,TGI,[24],2.92 µM
same,GI50,[25],1.71 µM
same,TGI,[25],5.49 µM
same,GI50,[26],31.8 µM
same,TGI,[26],> 100 µM
same,GI50,[27],4.04 µM
same,TGI,[27],> 100 µM
same,GI50,[28],7.47 µM
same,TGI,[28],> 100 µM
same,GI50,[29],6.42 µM
same,TGI,[29],> 100 µM
same,GI50,[31],13.9 µM
same,TGI,[31],> 100 µM
same,GI50,[32],2.29 µM
same,TGI,[32],14.7 µM
same,GI50,[34],4.41 µM
same,TGI,[34],> 100 µM
same,GI50,[35],2.45 µM
same,TGI,[35],24 µM
same,GI50,[36],11.3 µM
same,TGI,[36],> 100 µM
same,GI50,[37],2.64 µM
same,TGI,[37],> 100 µM
same,GI50,[38],> 100 µM
same,TGI,[38],> 100 µM
same,GI50,[39],4.67 µM
same,TGI,[39],> 100 µM
same,GI50,[40],0.957 µM
same,TGI,[40],19.2 µM
same,GI50,[42],0.188 µM
same,TGI,[42],6.71 µM
same,GI50,[43],2.27 µM
same,TGI,[43],32.5 µM
same,GI50,[44],5.36 µM
same,TGI,[44],> 100 µM
same,GI50,[45],> 100 µM
same,TGI,[45],> 100 µM
same,GI50,[46],12.7 µM
same,TGI,[46],> 100 µM
same,GI50,[47],1.84 µM
same,TGI,[47],12 µM
same,GI50,[48],13.2 µM
same,TGI,[48],> 100 µM
same,GI50,[49],4.5 µM
same,TGI,[49],> 100 µM
same,GI50,[50],6.54 µM
same,TGI,[50],> 100 µM
same,GI50,[51],> 100 µM
same,TGI,[51],> 100 µM
same,GI50,[52],1.75 µM
same,TGI,[52],> 100 µM
same,GI50,[53],3.1 µM
same,TGI,[53],8.61 µM
same,GI50,[54],4.63 µM
same,TGI,[54],> 100 µM
same,GI50,[55],> 100 µM
same,TGI,[55],> 100 µM
same,GI50,[56],2.39 µM
same,TGI,[56],54.5 µM
same,GI50,[57],52.7 µM
same,TGI,[57],> 100 µM
COc1ccc(NC(=O)/C(CC2=Nc3ccc([N+](=O)[O-])cc3NC2O)=N\NC(=O)C[N+](C)(C)C)c(OC)c1 (centres undefined),TGI,[1],68.8 µM
same,TGI,[3],> 100 µM
same,TGI,[4],> 100 µM
same,TGI,[5],> 100 µM
same,TGI,[6],> 100 µM
same,TGI,[7],> 100 µM
same,TGI,[8],> 100 µM
same,TGI,[9],> 100 µM
same,TGI,[10],> 100 µM
same,TGI,[11],> 100 µM
same,TGI,[12],> 100 µM
same,TGI,[13],> 100 µM
same,TGI,[14],> 100 µM
same,TGI,[15],> 100 µM
same,TGI,[16],> 100 µM
same,TGI,[17],> 100 µM
same,TGI,[18],> 100 µM
same,TGI,[19],> 100 µM
same,TGI,[21],> 100 µM
same,TGI,[22],> 100 µM
same,TGI,[23],> 100 µM
same,TGI,[25],> 100 µM
same,TGI,[26],42.1 µM
same,TGI,[27],> 100 µM
same,TGI,[28],> 100 µM
same,TGI,[29],> 100 µM
same,TGI,[30],> 100 µM
same,TGI,[31],> 100 µM
same,TGI,[32],> 100 µM
same,TGI,[33],> 100 µM
same,TGI,[34],> 100 µM
same,TGI,[35],> 100 µM
same,TGI,[36],> 100 µM
same,TGI,[37],> 100 µM
same,TGI,[38],69.8 µM
same,TGI,[39],> 100 µM
same,TGI,[41],> 100 µM
same,TGI,[42],> 100 µM
same,TGI,[43],> 100 µM
same,TGI,[44],> 100 µM
same,TGI,[45],> 100 µM
same,TGI,[46],> 100 µM
same,TGI,[47],96.3 µM
same,TGI,[48],> 100 µM
same,TGI,[49],> 100 µM
same,TGI,[50],> 100 µM
same,TGI,[51],> 100 µM
same,TGI,[58],48.6 µM
same,TGI,[52],> 100 µM
same,TGI,[53],> 100 µM
same,TGI,[54],> 100 µM
same,TGI,[55],> 100 µM
same,TGI,[56],> 100 µM
same,TGI,[57],> 100 µM
